Assay results published in PMC10607100, “Anticancer and Antiphytopathogenic Activity of Fluorinated Isatins and Their Water-Soluble Hydrazone Derivatives” (International Journal of Molecular Sciences, 2023).
Where two headings read alike, the source gives them in different places.

Legend:
Format in all cases: cell-based
[1] = tested on: Xanthomonas campestris B-610; assay: Agar-well diffusion, bactericidal activity; settings: Xanthomonas campestris
Procedure, shortened: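 Agar-well diffusion on GYCa agar (pH 7.2–7.4) seeded with bacterial suspension; 150 μL compound solution placed in 6-mm wells. Inhibition zone width measured after 36–40 h incubation.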

[2] = tested on: Fusarium oxysporum IBPPM 543; assay: Mycelial radial growth inhibition; settings: Fusarium oxysporum; for inhibition of growth at 1 µM: 1 nmol/mL; for inhibition of growth at 1 µM / inhibition of growth at 5 µM / inhibition of growth at 30 µM / inhibition of growth at 40 µM: read-out: Inhibition value, I (%); for inhibition of growth at 5 µM: 5 nmol/mL; for inhibition of growth at 30 µM: 30 nmol/mL; for inhibition of growth at 40 µM: 40 nmol/mL
Procedure, shortened: (§1)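 Compounds mixed into molten GPY agar at various concentrations; centre inoculated with a 5-mm mycelial plug from 10-day cultures and incubated at 27 °C. Colony diameter compared with untreated control until control plate was covered (usually 12 days); ≥4 replicates in two experiments.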

[3] = tested on: Phytophthora cactorum VKM F-985; assay: Mycelial radial growth inhibition; settings: Phytophthora cactorum; for inhibition of growth at 1 µM: 1 nmol/mL; for inhibition of growth at 1 µM / inhibition of growth at 3 µM / inhibition of growth at 7 µM / inhibition of growth at 20 µM / inhibition of growth / inhibition of growth at 40 µM: read-out: Inhibition value, I (%); for inhibition of growth at 3 µM: 3 nmol/mL; for inhibition of growth at 7 µM: 7 nmol/mL; for inhibition of growth at 20 µM: 20 nmol/mL; for inhibition of growth: 27 nmol/mL; for inhibition of growth at 40 µM: 40 nmol/mL
Procedure, shortened: as §1

[4] = tested on: five representative phytopathogens; assay: Agar-well diffusion, bactericidal activity over the panel of phytopathogens; settings: 36 h, 2 mM solutions; dependent on the test system used; read-out: inhibition zone width (mm), range over the test systems
Excerpt: Plant pathogenic bacterial strains Micrococcus luteus B-109, Pectobacterium atrosepticum 1043, Pectobacterium carotovorum subsp. carotovorum MI, Pseudomonas fluorescens EL-2.1, and Xanthomonas campestris B-610 and the fungal strain Fusarium oxysporum IBPPM 543 were from the Collection of Rhizosphere Microorganisms, IBPPM RAS (WFCC no. 975, WDCM no. 1021) (CM IBPPM, http://collection.ibppm.ru). The pathogenic fungus Phytophthora cactorum VKM F-985, provided by the All-Russian Collection of Microorganisms (VKM) and deposited at the A.E. Favorsky Irkutsk Institute of Chemistry, SB RAS, was also used as a test organism. Bacteria M. luteus, P. carotovorum subsp. carotovorum, P. atrosepticum, and P. fluorescens were grown in a meat–peptone medium (BP), and X. campestris was grown in the medium with glucose, yeast extract, and calcium carbonate (GYCa). Solid media contained Bacto agar (18 g/L); pH was adjusted to 7.2–7.4. All bacterial cultures were grown at 28 °C. The mycelial cultures of F. oxysporum and P. cactorum were grown on a glucose–peptone–yeast (GPY) nutrient medium at 27 °C. For inoculum preparation, both fungal strains were initially grown on the agar GPY in Petri dishes and then transferred into the seed medium by punching out 5 mm of the agar plate culture with a self-designed cutter.
The antibacterial and antifungal activities of the compounds were explored using the agar-well diffusion method and the technique of mycelial radial growth inhibition. The method of diffusion in agar (measuring the diameter of growth inhibition zones) was used to determine the bactericidal activity. The 6-mm wells were made in agar medium (GYCa for Xanthomonas campestris or BP for other bacteria). Bacterial suspensions were distributed over the agar surface, and the tested compound’s solution (150 μL) was added to each well. The width of growth inhibition zones around the wells was determined after incubation for 36–40 h.

Micrococcus luteus B-109 = assay: Agar-well diffusion, bactericidal activity; settings: Micrococcus luteus
Procedure, shortened: (§2)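 Bacteria spread on agar (BP medium; GYCa for X. campestris; pH 7.2–7.4) with 6-mm wells, each receiving 150 μL compound solution. Cultures grown at 28 °C; growth-inhibition zone width measured after 36–40 h.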

[5] = tested on: Pectobacterium carotovorum subsp. carotovorum MI; assay: Agar-well diffusion, bactericidal activity; settings: Pectobacterium carotovorum, 2 mM/L
Procedure, shortened: as §2

[6] = tested on: Pectobacterium atrosepticum 1043; assay: Agar-well diffusion, bactericidal activity; settings: Pectobacterium atrosepticum, 1043, 2 mM/L
Procedure, shortened: as §2

[7] = tested on: Pseudomonas fluorescens EL-2.1; assay: Agar-well diffusion, bactericidal activity; settings: Pseudomonas fluorescens, EL2.1, 2 mM/L
Procedure, shortened: as §2

[8] = IBPPM543, 72 h, age of the fungus 3 days
[9] = IBPPM543, 120 h, age of the fungus 5 days
[10] = IBPPM543, 168 h, age of the fungus 7 days
[11] = IBPPM543, 216 h, age of the fungus 9 days
[12] = 120 h, age of the fungus 5 days
[13] = 168 h, age of the fungus 7 days
[14] = 216 h, age of the fungus 9 days
[15] = Table S3, read-out: Inhibition zone width (mm), not less

Cc1ccc[n+](CC(=O)N/N=C2\C(=O)N(Cc3cccc(C(F)(F)F)c3)c3ccccc32)c1C [Compound 7c]
zone of inhibition at 2000 µM ([1]; B610, 2 mM/L, average of 3 experiments, read-out: width of the inhibition zone (mm), X. campestris): 9 mm
zone of inhibition at 2000 µM ([1]; B610, Table S3, 2 mM/L, read-out: Inhibition zone width (mm), not less): ≥ 9 mm
inhibition of growth at 1 µM [2, 8]: 22%
inhibition of growth at 5 µM [2, 8]: 36%
inhibition of growth at 30 µM [2, 8]: 45%
inhibition of growth at 40 µM [2, 8]: 57%
EC50 ([2]; IBPPM543, 120 h, day 5, read-out: EC50, µg/mL at Day 5, F. oxysporum): 13.9 µg/mL
inhibition of growth at 1 µM [2, 9]: 21%
inhibition of growth at 5 µM [2, 9]: 35%
inhibition of growth at 30 µM [2, 9]: 41%
inhibition of growth at 40 µM [2, 9]: 63%
inhibition of growth at 1 µM [2, 10]: 15%
inhibition of growth at 5 µM [2, 10]: 27%
inhibition of growth at 30 µM [2, 10]: 44%
inhibition of growth at 40 µM [2, 10]: 66%
inhibition of growth at 1 µM [2, 11]: 10%
inhibition of growth at 5 µM [2, 11]: 22%
inhibition of growth at 30 µM [2, 11]: 36%
inhibition of growth at 40 µM [2, 11]: 64%
inhibition of growth at 1 µM ([3]; 72 h, age of the fungus 3 days): 10%
inhibition of growth at 3 µM ([3]; 72 h, age of the fungus 3 days): 20%
inhibition of growth at 7 µM ([3]; 72 h, age of the fungus 3 days): 26%
inhibition of growth at 20 µM ([3]; 72 h, age of the fungus 3 days): 32%
inhibition of growth ([3]; 72 h, age of the fungus 3 days): 48%
inhibition of growth at 40 µM ([3]; 72 h, age of the fungus 3 days): 55%
EC50 ([3]; 120 h, day 5, read-out: EC50, µg/mL at Day 5, P. cactorum): 20 µg/mL
inhibition of growth at 1 µM [3, 12]: 11%
inhibition of growth at 3 µM [3, 12]: 18%
inhibition of growth at 7 µM [3, 12]: 22%
inhibition of growth at 20 µM [3, 12]: 27%
inhibition of growth [3, 12]: 36%
inhibition of growth at 40 µM [3, 12]: 56%
inhibition of growth at 1 µM [3, 13]: 12%
inhibition of growth at 3 µM [3, 13]: 17%
inhibition of growth at 7 µM [3, 13]: 22%
inhibition of growth at 20 µM [3, 13]: 25%
inhibition of growth [3, 13]: 33%
inhibition of growth at 40 µM [3, 13]: 44%
inhibition of growth at 1 µM [3, 14]: 11%
inhibition of growth at 3 µM [3, 14]: 16%
inhibition of growth at 20 µM [3, 14]: 9%
inhibition of growth [3, 14]: 28%
inhibition of growth at 40 µM [3, 14]: 41%
zone of inhibition at 2000 µM [4]: 6 to 9 mm
zone of inhibition at 2000 µM (Micrococcus luteus B-109; B109, 2 mM/L, average of 3 experiments, read-out: width of the inhibition zone (mm), M. luteus): 7 mm
zone of inhibition at 2000 µM (Micrococcus luteus B-109; B109, Table S3, 2 mM/L, read-out: Inhibition zone width (mm), not less): ≥ 7 mm
zone of inhibition at 2000 µM ([5]; average of 3 experiments, read-out: width of the inhibition zone (mm), P. carotovorum subsp. carotovorum): 7 mm
zone of inhibition at 2000 µM [5, 15]: ≥ 7 mm
zone of inhibition at 2000 µM ([6]; average of 3 experiments, read-out: width of the inhibition zone (mm), P. atrosepticum): 6 mm
zone of inhibition at 2000 µM [6, 15]: ≥ 6 mm
zone of inhibition at 2000 µM ([7]; average of 3 experiments, read-out: width of the inhibition zone (mm), Ps. fluorescens): 7 mm
zone of inhibition at 2000 µM [7, 15]: ≥ 7 mm
